# Test results as given in article PMC8113459, “Selective inhibition of cullin 3 neddylation through covalent targeting DCN1 protects mice from acetaminophen-induced liver toxicity” (Nature Communications, 2021).
# Values joined by “and” are separate entries in the source; they are usually repeats but may differ in a detail not shown here. Equal values may be shown once. Read-outs that look alike come from different tables or passages of the source.
# Key:
# neddylation of cullin 3 = assay: Western blot, cullin 3 neddylation in U2OS cells; type: cell-based, human; conditions: for concentration as low as which cullin 3 neddylation is inhibited / potency in inhibition of cullin 3 neddylation compared with DI-591 / times more potent than DI-591 in inhibition of cullin 3 neddylation: 24 h, Fig. 1c
# Method: (§1) Western blotting was performed as described previously. Treated cells were lysed by RIPA buffer supplemented with protease inhibitor. The expression level of indicated proteins was examined by immunoblotting analysis and GAPDH was used as the loading control. Antibodies were purchased commercially: cullin 1 (sc-17775, 1:500 dilution) and cullin 2 (sc-166506, 1:500 dilution) from Santa Cruz Biotech (Santa Cruz, CA); cullin 4A (PA5-14542, 1:1000 dilution), cullin 4B (PA5-50647, 1:1000 dilution), and DCN3 (DCUN1D3, PA5-44000, 1:1000 dilution) from Thermo Fisher Scientific (Wayne, MI); cullin 3 (2759, 1:1000), NRF2 (12721, 1:1000 dilution), HO-1 (70081, 1:1000 dilution), and Bim (2819, 1:1000 dilution) from Cell Signaling Technology (Boston, MA); DCN1 (GWB-E3D700, 1:1000 dilution) from GenWay Biotech (San Diego, CA); and cullin 5 (A302-173A, 1:500 dilution) from Bethyl Labs (Montgomery, TX). Results are representative of two independent experiments.
# NRF2 protein = assay: Western blot, NRF2 protein accumulation in cells; type: cell-based, human
# Method: as §1
# [1] = Pharmacokinetics: concentrations in mouse plasma and liver; type: in vivo; conditions: for concentration at 1 h / concentration at 3 h / concentration at 6 h / concentration at 24 h: male, C57BL/6, mouse, ip
# Method: Supplementary Table 2A. Concentrations of DI-1548 in mouse Plasma and liver after the C57BL/6 male mice were treated with a single dose of DI-1548 at 25 mg/kg via intraperitoneal (IP) injection. BLQ: below the limit of quantification.
# Time point (h) Plasma (ng /mL) Liver (ng /g)
# Supplementary Table 2B. Concentrations of DI-1859 in mouse Plasma and liver after the C57BL/6 male mice were treated with a single dose of DI-1859 at 25 mg/kg via intraperitoneal (IP) injection. BLQ:
# Time point (h) Pl asma (ng /mL) Liver (ng /g) […]
# DCN1 = DCN1 (Homo sapiens, UniProt Q96GG9); assay: Cocrystal structures of lyso-DCN1-inhibitor complexes; design: to DCN1 residues 62–251; His6 (N); TEV cleavage site (N); lysozyme residues 1–164 with C54T, C97A, A146T, D127A, R154A (fusion partner, N-terminal of DCN1); made in house; host or cells: Rosetta 2 cells (E. coli)
# Chain of DCN1 (Q96GG9 62-251): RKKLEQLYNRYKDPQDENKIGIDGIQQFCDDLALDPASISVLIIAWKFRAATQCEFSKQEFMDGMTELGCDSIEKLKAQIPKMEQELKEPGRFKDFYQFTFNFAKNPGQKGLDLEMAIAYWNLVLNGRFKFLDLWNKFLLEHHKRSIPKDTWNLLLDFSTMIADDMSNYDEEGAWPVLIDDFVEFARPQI
# Method: Lysozyme–DCN1 gene was synthesized fusing lysozyme residues 1–164, containing mutations (C54T, C97A, A146T, D127A, and R154A), to DCN1 residues 62–251. Ligation independent cloning was utilized to clone the fused gene into an N-terminal His6–TEV expression vector. The clone was transformed into Rosetta 2 cells, grown in terrific broth at 37 °C, and expressed overnight with 0.4 mM isopropyl β-D-1-thiogalactopyranoside at 20 °C. Pelleted cells were freeze-thawed and lysed in 25 mM HEPES, pH 7.5, 150 mM NaCl, 0.1% β-mercaptoethanol and protease inhibitors. Cellular debris was removed via centrifugation. The supernatant was loaded onto a Ni-NTA (Qiagen) column at 4 °C. The column was washed with 25 mM HEPES, pH 7.5, 150 mM NaCl, and 20 mM imidazole, then protein eluted with buffer containing 300 mM imidazole. The eluate was applied to a Superdex 200 (GE Healthcare) equilibrated with 25 mM HEPES, pH 7.5, 200 mM NaCl, and 1 mM DTT. The protein was judged to be greater than 95% pure by SDS-PAGE, concentrated to 3.5 mg/mL and stored at −80 °C. Yield was 450 mg/L of expressed media.
# Lyso–DCN1 protein was thawed and concentrated to 9.9 mg/mL in 25 mM HEPES, pH 7.5, 200 mM NaCl, and 1 mM DTT. Each compound was incubated with protein in a 1:1.2 protein to compound molar ratio overnight at 4 °C, then spun and setup in sitting drop vapor diffusion experiments. Crystallization drops contained 2 µL of protein–inhibitor solution and 1 µL of well solution. Crystals grew at 20 °C with well solution containing 28–33% PEG 3350 and 200 mM ammonium formate. Crystals were cryoprotected in 25 mM HEPES, pH 7.5, 200 mM NaCl, 30% PEG 3350, and 1 mM DTT.
# Diffraction data were collected at a wavelength of 0.9786 Å on the APS LS-CAT 21-ID-G beamline at Argonne National Laboratory. Data were processed using HKL2000[44] and solved via molecular replacement using molrep[45] with two independent search models (lysozyme and DCN1) from PDB ID 5V83. The structures were iteratively fit and refined using Coot[46] and Buster[47]. […]
# [2] = C57BL/6 male mice, 25 mg/kg IP, 6 h
# [3] = C57BL/6 male mice, 25 mg/kg IP, 24 h
# [4] = liver, 25 mg/kg, C57BL/6 male mice, 25 mg/kg IP, 1 h, read-out: Liver concentration
# [5] = liver, 25 mg/kg, mouse liver, IP 25mg/kg, 1h, mean of 3 mice, read-out: Concentration in mouse liver, MEAN
# [6] = liver, 25 mg/kg, mouse liver, IP 25mg/kg, 3h, mean of 3 mice, read-out: Concentration in mouse liver, MEAN
# [7] = liver, 25 mg/kg, mouse liver, IP 25mg/kg, 6h, mean of 3 mice, read-out: Concentration in mouse liver, MEAN
# [8] = liver, 25 mg/kg, mouse liver, IP 25mg/kg, 24h, mean, read-out: Concentration in mouse liver, MEAN
# [9] = liver, 25 mg/kg, mouse liver, IP 25mg/kg, 24h, single animals, read-out: Concentration in mouse liver, individual mice 1, 2, 3
# [10] = plasma, 25 mg/kg, C57BL/6 male mice, 25 mg/kg IP, 1 h, read-out: Plasma concentration
# [11] = plasma, 25 mg/kg, C57BL/6 male mice, 25 mg/kg IP, 3 h, read-out: Plasma concentration
# [12] = plasma, 25 mg/kg, mouse plasma, IP 25mg/kg, 1h, mean of 3 mice, read-out: Concentration in mouse plasma, MEAN
# [13] = plasma, 25 mg/kg, mouse plasma, IP 25mg/kg, 1h, single animals, read-out: Concentration in mouse plasma, individual mice 1, 2, 3
# [14] = plasma, 25 mg/kg, mouse plasma, IP 25mg/kg, 3h, mean of 3 mice, read-out: Concentration in mouse plasma, MEAN
# [15] = plasma, 25 mg/kg, mouse plasma, IP 25mg/kg, 6h, mean (only one mouse above the limit of quantification), read-out: Concentration in mouse plasma, MEAN
# [16] = plasma, 25 mg/kg, mouse plasma, IP 25mg/kg, 6h, single animals, limit of quantification 1 ng/mL, read-out: Concentration in mouse plasma, individual mice 1, 2, 3
# [17] = plasma, 25 mg/kg, mouse plasma, IP 25mg/kg, 24h, single animals, limit of quantification 1 ng/mL, read-out: Concentration in mouse plasma, individual mice 1, 2, 3
# [18] = mouse liver, IP 25mg/kg, 1h, single animals, 25 mg/kg
# [19] = mouse liver, IP 25mg/kg, 3h, single animals, 25 mg/kg
# [20] = mouse liver, IP 25mg/kg, 6h, single animals, 25 mg/kg
# [21] = mouse plasma, IP 25mg/kg, 1h, single animals, 25 mg/kg
# [22] = mouse plasma, IP 25mg/kg, 3h, single animals, 25 mg/kg
# [23] = mouse plasma, IP 25mg/kg, 6h, single animals, limit of quantification 1 ng/mL, 25 mg/kg
# [24] = mouse plasma, IP 25mg/kg, 24h, single animals, limit of quantification 1 ng/mL
SMILES,concentration as low as which cullin 3 neddylation is inhibited (neddylation of cullin 3) [nM],potency in inhibition of cullin 3 neddylation compared with DI-591 (neddylation of cullin 3),times more potent than DI-591 in inhibition of cullin 3 neddylation (neddylation of cullin 3),times more potent than DI-591 in inducing accumulation of NRF2 protein (NRF2 protein),time by which the compounds were cleared from systemic circulation ([1]; 25 mg/kg IP) [h],"Liver concentration [1, 2]","Plasma concentration [1, 2]","Liver concentration [1, 3]","Plasma concentration [1, 3]","concentration at 1 h [1, 4] [ng/g]","concentration at 1 h [1, 5] [ng/g]","concentration at 3 h [1, 6] [ng/g]","concentration at 6 h [1, 7] [ng/g]","concentration at 24 h [1, 8] [ng/g]","concentration at 24 h [1, 9] [ng/g]","concentration at 1 h [1, 10] [ng/mL]","concentration at 3 h [1, 11] [ng/mL]","concentration at 1 h [1, 12] [ng/mL]","concentration at 1 h [1, 13] [ng/mL]","concentration at 3 h [1, 14] [ng/mL]",also measured
C=C(CN1CCOCC1)C(=O)NC[C@@H](NC(=O)[C@H](Cc1nc2ccc(C(C)C)cc2s1)NC(=O)CC)C1CCCCC1 [DI-1548],≤ 1,much more potent than DI-591,~ 1000 times,100–1000 times,< 3,BLQ,BLQ,BLQ,BLQ,783 ± 336,783,3.32,2.37,1.22,1.22,1830 ± 319,4.5 ± 3.6,1830,1820,4.47,"time within which the neddylation of cullin 3 is effectively inhibited (neddylation of cullin 3; U2OS, Fig. 6c): ≤ 5 min; Liver concentration ([1]; C57BL/6 male mice, 25 mg/kg IP, 3 h): BLQ; concentration at 3 h ([1]; liver, 25 mg/kg, mouse liver, IP 25mg/kg, 3h, single animals, read-out: Concentration in mouse liver, individual mice 1, 2, 3): 3.8 ng/g; concentration at 6 h ([1]; liver, 25 mg/kg, mouse liver, IP 25mg/kg, 6h, single animals, read-out: Concentration in mouse liver, individual mice 1, 2, 3): 2.47 ng/g; concentration at 6 h [1, 15]: 1.12 ng/mL; concentration at 6 h [1, 16]: 1.12 ng/mL; concentration at 24 h [1, 17]: < 1 ng/mL; Concentration in mouse liver, individual mice 1, 2, 3 [1, 18]: 766.08 ng/g and 455.81 ng/g and 1128.06 ng/g; Concentration in mouse liver, individual mice 1, 2, 3 [1, 19]: 2.91 ng/g and 3.26 ng/g; Concentration in mouse liver, individual mice 1, 2, 3 [1, 20]: 2.85 ng/g and 1.80 ng/g; Concentration in mouse plasma, individual mice 1, 2, 3 [1, 21]: 2146.60 ng/mL and 1507.85 ng/mL; Concentration in mouse plasma, individual mice 1, 2, 3 [1, 22]: 2.23 ng/mL and 8.63 ng/mL and 2.55 ng/mL; Concentration in mouse plasma, individual mice 1, 2, 3 [1, 23]: <1 ng/mL; Concentration in mouse plasma, individual mice 1, 2, 3 [1, 24]: <1 ng/mL; covalent bond to Cys115 of DCN1 in the cocrystal structure (DCN1): confirmed the covalent nature of these complexes"
C=C(CN(C)C)C(=O)NC[C@@H](NC(=O)[C@H](Cc1nc2ccc(C(C)C)cc2s1)NC(=O)CC)C1CCCCC1 [DI-1859],≤ 1,much more potent than DI-591,~ 1000 times,100–1000 times,< 3,BLQ,BLQ,BLQ,BLQ,3280 ± 531,3280,30.3,2.27,1.46,1.56,1740 ± 292,28 ± 12,1740,2070,27.9,"concentration at 3 h ([1]; liver, 25 mg/kg, C57BL/6 male mice, 25 mg/kg IP, 3 h, read-out: Liver concentration): 30 ± 29 ng/g; concentration at 1 h ([1]; liver, 25 mg/kg, mouse liver, IP 25mg/kg, 1h, single animals, read-out: Concentration in mouse liver, individual mice 1, 2, 3): 3880 ng/g; concentration at 6 h [1, 15]: 1.04 ng/mL; concentration at 6 h [1, 16]: < 1 ng/mL; concentration at 24 h [1, 17]: < 1 ng/mL; Concentration in mouse liver, individual mice 1, 2, 3 [1, 18]: 3079.98 ng/g and 2879.94 ng/g; Concentration in mouse liver, individual mice 1, 2, 3 [1, 19]: 13.04 ng/g and 64.07 ng/g and 13.91 ng/g; Concentration in mouse liver, individual mice 1, 2, 3 [1, 20]: 1.59 ng/g; Concentration in mouse liver, individual mice 1, 2, 3 ([1]; mouse liver, IP 25mg/kg, 24h, single animals, 25 mg/kg): 1.41 ng/g and 1.40 ng/g; Concentration in mouse plasma, individual mice 1, 2, 3 [1, 21]: 1549.72 ng/mL and 1588.65 ng/mL; Concentration in mouse plasma, individual mice 1, 2, 3 [1, 22]: 36.02 ng/mL and 14.64 ng/mL and 33.18 ng/mL; Concentration in mouse plasma, individual mice 1, 2, 3 [1, 23]: <1 ng/mL and 1.04 ng/mL; Concentration in mouse plasma, individual mice 1, 2, 3 [1, 24]: <1 ng/mL; covalent bond to Cys115 of DCN1 in the cocrystal structure (DCN1): confirmed the covalent nature of these complexes"
